Key:
[1] = mRNA encapsulation by Qubit RNA HS dye fluorescence before and after Triton X-100 lysis; assay type: physicochemical; conditions: percentage of mRNA encapsulation; Fluc mRNA/peptoid formulation, 5:1 mass ratio peptoid:cargo
Method: (§1) To prepare nanoparticle formulations, the tertiary amino lipidated and/or PEGylated cationic peptide compound is mixed by pipetting with nucleic acid at a mass ratio between approximately 1:1 (peptide compound:cargo) and 20:1. Prior to formulation, tertiary amino lipidated and/or PEGylated cationic peptide compounds and cargo (such as nucleic acid) are diluted in ethanol and acidic buffer (PBS adjusted to pH 5.5 with 0.1 M HCl) respectively to a volume ratio of 1:3 and to target a final cargo concentration of approximately 0.05 mg/mL to 0.2 mg/mL. The exemplary amino lipidated cationic peptoids 1-36 described in Example 2 were combined with firefly luciferase (Fluc) mRNA to form nanoparticle compositions to be evaluated for therapeutic and/or prophylactic purposes in vitro or in vivo. The formulations were prepared according to the protocol of Example 3 and mixed by simple pipetting. The mRNA/peptoid formulation at a 5:1 mass ratio of peptoid:cargo were evaluated by dynamic light scattering (DLS) in order to determine the volume average particle size/diameter (nm) of the mRNA/peptoid complex and the size polydispersity index (PDI) within the formulation. The percentage of mRNA encapsulation for each formulation of the exemplary compounds were determined by fluorescence of the Qubit RNA HS (Invitrogen) dye before and after lysis of particles by Triton X-100.

[2] = Dynamic light scattering of Fluc mRNA/peptoid formulations (particle size, PDI); assay type: physicochemical; conditions: Fluc mRNA/peptoid formulation, 5:1 mass ratio peptoid:cargo; for Size PDI: size polydispersity index by DLS; for Size (nm): volume average particle size/diameter by DLS
Method: as §1

HeLa cells = test: In vitro firefly luciferase (Fluc) expression after treatment with Fluc mRNA/amino lipidated peptoid formulations; assay type: cell-based; conditions: peptoid:Fluc mRNA 5:1 w/w, 100 ng/well; for Luciferase Expression (RLU) 6 h: 6 hours of treatment; for Luciferase Expression (RLU) 24 h: 24 hours of treatment
Method: The efficacy of mRNA/amino lipidated peptoid formulations was evaluated in vitro based on their ability to deliver the firefly luciferase (Fluc) reporter gene to cultured cells. The amino lipidated cationic peptoids 1-36 of Example 2 were individually combined with Fluc mRNA at a 5:1 w/w ratio, and the resulting particles were added to cultured HeLa cells at a dose of 100 ng/well (in 100 μL total volume). The resulting luciferase expression (RLU) was measured by a luminescence plate reader after 6 hours and 24 hours of treatment.

| SMILES | % Encapsulation [1] | Size PDI [2] | Size (nm) [2] | Luciferase Expression (RLU) 6 h (HeLa cells) | Luciferase Expression (RLU) 24 h (HeLa cells) |
| --- | --- | --- | --- | --- | --- |
| CCCCCCCCCCN(CC(N)=O)C(=O)CN(CCCCCCCCCC)C(=O)CN(CCCCCCCCCC)C(=O)CN(CCCCCCCCCC)C(=O)CN(CCCCCCCCCC)C(=O)CN(CCc1ccccc1)C(=O)CN(CCc1ccccc1)C(=O)CN(CCN)C(=O)CN(CCc1ccccc1)C(=O)CN(CCc1ccccc1)C(=O)CN(CCN)C(=O)CN(CCc1ccccc1)C(=O)CN(CCc1ccccc1)C(=O)CN(CCN)C(=O)CN(CCc1ccccc1)C(=O)CN(CCc1ccccc1)C(=O)CNCCN [Compound 21] | 65.4% | 0.174 | 386.5 nm | 3.45E+03 RLU | 1.24E+04 RLU |
| CCCCCCCCCCN(CC(N)=O)C(=O)CN(CCCCCCCCCC)C(=O)CN(CCCCCCCCCC)C(=O)CN(CCCCCCCCCC)C(=O)CN(CCc1ccccc1)C(=O)CN(CCc1ccccc1)C(=O)CN(CC1CCCN1)C(=O)CN(CCc1ccccc1)C(=O)CN(CCc1ccccc1)C(=O)CN(CC1CCCN1)C(=O)CN(CCc1ccccc1)C(=O)CN(CCc1ccccc1)C(=O)CN(CC1CCCN1)C(=O)CN(CCc1ccccc1)C(=O)CN(CCc1ccccc1)C(=O)CNCC1CCCN1 (stereo not shown) [Compound 35] | 38.0% | 0.486 | 359.8 nm | 1.22E+03 RLU | 1.60E+03 RLU |
| CCCCCCCCCCN(CC(N)=O)C(=O)CN(CCCCCCCCCC)C(=O)CN(CCCCCCCCCC)C(=O)CN(CCCCCCCCCC)C(=O)CN(CCc1ccccc1)C(=O)CN(CCc1ccccc1)C(=O)CN(CC1CCCN1)C(=O)CN(CCc1ccccc1)C(=O)CN(CCc1ccccc1)C(=O)CN(CC1CCCN1)C(=O)CN(CCc1ccccc1)C(=O)CN(CCc1ccccc1)C(=O)CNCC1CCCN1 (stereo not shown) [Compound 34] | 58.0% | 0.295 | 348.4 nm | 1.95E+03 RLU | 2.71E+03 RLU |
| CCCCCCCCCCN(CC(N)=O)C(=O)CN(CCCCCCCCCC)C(=O)CN(CCCCCCCCCC)C(=O)CN(CCCCCCCCCC)C(=O)CN(CCc1ccccc1)C(=O)CN(CCc1ccccc1)C(=O)CN(CCCN)C(=O)CN(CCc1ccccc1)C(=O)CN(CCc1ccccc1)C(=O)CN(CCCN)C(=O)CN(CCc1ccccc1)C(=O)CN(CCc1ccccc1)C(=O)CN(CCCN)C(=O)CN(CCc1ccccc1)C(=O)CN(CCc1ccccc1)C(=O)CNCCCN [Compound 29] | 24.8% | 0.237 | 343.4 nm | 1.64E+03 RLU | 6.72E+03 RLU |
| CCCCCCCCCCN(CC(N)=O)C(=O)CN(CCCCCCCCCC)C(=O)CN(CCCCCCCCCC)C(=O)CN(CCCCCCCCCC)C(=O)CN(CCCCCCCCCC)C(=O)CN(CCc1ccccc1)C(=O)CN(CCc1ccccc1)C(=O)CN(CCN)C(=O)CN(CCc1ccccc1)C(=O)CN(CCc1ccccc1)C(=O)CN(CCN)C(=O)CN(CCc1ccccc1)C(=O)CN(CCc1ccccc1)C(=O)CNCCN [Compound 19] | 70.9% | 0.158 | 276 nm | 8.20E+03 RLU | 1.09E+04 RLU |
| CCCCCCCCCCN(CC(N)=O)C(=O)CN(CCCCCCCCCC)C(=O)CN(CCCCCCCCCC)C(=O)CN(CCCCCCCCCC)C(=O)CN(CCc1ccccc1)C(=O)CN(CCc1ccccc1)C(=O)CN(CCN)C(=O)CN(CCc1ccccc1)C(=O)CN(CCc1ccccc1)C(=O)CN(CCN)C(=O)CN(CCc1ccccc1)C(=O)CN(CCc1ccccc1)C(=O)CNCCN [Compound 8] | 82.5% | 0.077 | 234 nm | 1.10E+04 RLU | 1.33E+04 RLU |
| CCCCCCCCCCN(CC(N)=O)C(=O)CN(CCCCCCCCCC)C(=O)CN(CCc1ccccc1)C(=O)CN(CCc1ccccc1)C(=O)CN(CCN)C(=O)CN(CCc1ccccc1)C(=O)CN(CCc1ccccc1)C(=O)CN(CCN)C(=O)CN(CCc1ccccc1)C(=O)CN(CCc1ccccc1)C(=O)CN(CCN)C(=O)CN(CCc1ccccc1)C(=O)CN(CCc1ccccc1)C(=O)CN(CCN)C(=O)CN(CCc1ccccc1)C(=O)CN(CCc1ccccc1)C(=O)CNCCN [Compound 12] | 86.5% | 0.211 | 224.4 nm | 4.04E+02 RLU | 5.71E+02 RLU |
| CCCCCCCCCCN(CC(=O)N(CC(=O)N(CCCCCCCCCC)CC(=O)N(CC(N)=O)CC(CC)CCCC)CC(CC)CCCC)C(=O)CN(CCc1ccccc1)C(=O)CN(CCc1ccccc1)C(=O)CN(CCN)C(=O)CN(CCc1ccccc1)C(=O)CN(CCc1ccccc1)C(=O)CN(CCN)C(=O)CN(CCc1ccccc1)C(=O)CN(CCc1ccccc1)C(=O)CNCCN (stereo not shown) [Compound 24] | 87.0% | 0.135 | 161 nm | 1.79E+04 RLU | 3.43E+04 RLU |

Reference: patent US11446394B2, “Lipid nanoparticle formulations comprising lipidated cationic peptide compounds for nucleic acid delivery” (NUTCRACKER THERAPEUTICS, INC., priority 2018, dated 2022)
